Experiment [1] deals with full length recombinant Pim-2 (Homo sapiens (Human), UniProt Q9P1W9). In words: Pim enzyme assay (HTRF, phosphorylation of biotinylated-BAD (S112) peptide), Pim-2. The format is biochemical. The settings on record: read-out: Pim2_IC50. On the technique in general: TR-FRET usually uses a lanthanide donor and a delayed reading to cut background.
Experiment [2] deals with full length recombinant Pim-1 (Homo sapiens (Human), UniProt P11309). In words: Pim enzyme assay (HTRF, phosphorylation of biotinylated-BAD (S112) peptide), Pim-1. The experiment is classed as biochemical.
full length recombinant Pim-1, sequence (P11309 whole entry): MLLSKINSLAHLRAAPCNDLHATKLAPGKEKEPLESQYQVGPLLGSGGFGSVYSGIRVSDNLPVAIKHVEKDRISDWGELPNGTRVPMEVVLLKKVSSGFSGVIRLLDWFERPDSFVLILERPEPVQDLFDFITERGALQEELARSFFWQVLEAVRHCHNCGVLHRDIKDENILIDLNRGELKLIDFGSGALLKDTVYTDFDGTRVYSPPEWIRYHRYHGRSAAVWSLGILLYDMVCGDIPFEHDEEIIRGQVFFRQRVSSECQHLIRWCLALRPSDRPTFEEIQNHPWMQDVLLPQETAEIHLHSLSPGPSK
The mark [3] stands for this setting: HTRF, 10-point curve, high dose 1 uM, 45 min at RT.
[4] abbreviates: HTRF, 10-point curve, high dose 1 uM, 2 h at RT, read-out: Pim_1_IC50.
Where [5] appears, read: Pim-1 enzyme assay, read-out: Pim_1_IC50.

Like-named read-outs stand apart in the source and are kept apart here.

full length recombinant Pim-2, sequence (Q9P1W9 whole entry): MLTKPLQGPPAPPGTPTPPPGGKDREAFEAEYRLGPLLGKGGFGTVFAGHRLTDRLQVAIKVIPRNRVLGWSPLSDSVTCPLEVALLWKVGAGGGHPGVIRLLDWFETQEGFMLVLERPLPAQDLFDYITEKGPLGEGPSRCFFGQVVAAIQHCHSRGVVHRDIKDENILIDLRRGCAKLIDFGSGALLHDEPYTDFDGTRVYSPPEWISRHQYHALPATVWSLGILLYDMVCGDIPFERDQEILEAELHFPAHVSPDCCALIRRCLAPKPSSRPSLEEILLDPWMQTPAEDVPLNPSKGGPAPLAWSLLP

Regarding `CNC(=O)c1cncc(-c2c[nH]c3ccc(-c4nnc(NC(C)C)o4)cc23)c1` [Example 286, 5-(5-(5-(isopropylamino)-1,3,4-oxadiazol-2-yl)-1H-indol-3-yl)-N-methylnicotinamide], the IC50 in experiment [1] (setting [3]) was 0.843 µM; in experiment [2] (setting [4]) it was 0.713 µM.

Regarding `CC(C)Nc1nnc(-c2ccc3[nH]cc(-c4nc(C(=O)NC5CC5)cs4)c3c2)o1` [Example 278, N-cyclopropyl-2-(5-(5-((1-methylethyl)amino)-1,3,4-oxadiazol-2-yl)-1H-indol-3-yl)-1,3-thiazole-4-carboxamide], the IC50 is 0.408 µM in experiment [1] (setting [3]) and 0.186 µM in experiment [2] (setting [4]).

In the case of `CC(C)Cc1nnc(-c2ccc3[nH]cc(-c4nccc(C5CC5)n4)c3c2)o1` [Example 51, 2-(3-(4-cyclopropylpyrimidin-2-yl)-1H-indol-5-yl)-5-isobutyl-1,3,4-oxadiazole], the IC50 in experiment [1] (Pim-2 enzyme assay) came out at 0.0308 µM; in experiment [2] (setting [5]), 0.0925 µM.

For `CC1(C)COCCN1c1nnc(-c2ccc3[nH]cc(-c4cncc(C5CC5)n4)c3c2)o1` [Example 253, 3-(6-cyclopropyl-2-pyrazinyl)-5-(5-(3,3-dimethyl-4-morpholinyl)-1,3,4-oxadiazol-2-yl)-1H-indole], the IC50 in experiment [1] (Pim-2 enzyme assay) was 0.141 µM; in experiment [2] (setting [5]) it was 0.0267 µM.

For the molecule `CNc1nnc(-c2ccc3[nH]cc(-c4ccccc4)c3c2)s1` [Example 223, N-methyl-5-(3-phenyl-1H-indol-5-yl)-1,3,4-thiadiazol-2-amine], the IC50 amounted to 1.95 µM in experiment [1] (Pim-2 enzyme assay) and 1.14 µM in experiment [2] (setting [5]).

For the molecule `Nc1nnc(-c2ccc3[nH]cc(-c4ccccc4F)c3n2)o1` [Example 9, 5-(3-(2-fluorophenyl)-1H-pyrrolo[3,2-b]pyridin-5-yl)-1,3,4-oxadiazol-2-amine], the IC50 came to 0.717 µM in experiment [1] (Pim-2 enzyme assay) and 0.644 µM in experiment [2] (setting [5]).

With `CNC(=O)c1cccc(-c2c[nH]c3ccc(-c4nnc(NC(C)C)o4)cc23)n1` [Example 285, 6-(5-(5-(isopropylamino)-1,3,4-oxadiazol-2-yl)-1H-indol-3-yl)-N-methylpicolinamide], the IC50 stood at 0.76 µM in experiment [1] (setting [3]) and 0.401 µM in experiment [2] (setting [4]).

`CC(C)Nc1nnc(-c2ccc3[nH]cc(-c4ncc(C(N)=O)s4)c3c2)o1` [Example 276, 2-(5-(5-((1-methylethyl)amino)-1,3,4-oxadiazol-2-yl)-1H-indol-3-yl)-1,3-thiazole-5-carboxamide]: the IC50 in experiment [1] (setting [3]) is 0.315 µM; in experiment [2] (setting [4]), 0.111 µM.

In the case of `CC(C)Nc1nnc(-c2ccc3[nH]cc(-c4cc(C(=O)N(C)C)ccc4F)c3c2)o1` [Example 302, 4-fluoro-N,N-dimethyl-3-(5-(5-((1-methylethyl)amino)-1,3,4-oxadiazol-2-yl)-1H-indol-3-yl)benzamide], the IC50 in experiment [2] (setting [4]) came out at 0.291 µM.

With `CNC(=O)c1ccc(F)c(-c2c[nH]c3ccc(-c4nnc(NC(C)C)o4)cc23)c1` [Example 289, 4-fluoro-3-(5-(5-(isopropylamino)-1,3,4-oxadiazol-2-yl)-1H-indol-3-yl)-N-methylbenzamide], the IC50 in experiment [1] (setting [3]) turned out to be 0.301 µM; in experiment [2] it was 0.233 µM.

Take `CC(C)Nc1nnc(-c2ccc3[nH]cc(-c4nccc(C(=O)NC5CC5)n4)c3c2)o1` [Example 283, N-cyclopropyl-2-(5-(5-((1-methylethyl)amino)-1,3,4-oxadiazol-2-yl)-1H-indol-3-yl)-4-pyrimidinecarboxamide 2,2,2-trifluoroacetate]: the values for the IC50 in experiment [1] (setting [3]) and in experiment [2] (setting [4]) were 0.453 µM and 0.517 µM, respectively.

Turning to `Cc1cc(N)nc(-c2c[nH]c3ccc(-c4nnc(NC(C)(C)C)o4)cc23)n1` [Example 272, 2-(5-(5-(tert-butylamino)-1,3-4-oxadiazol-2-yl)-1H-indol-3-yl)-6-methyl-4-pyrimidinamine], the IC50 in experiment [1] (Pim-2 enzyme assay) was found to be 0.351 µM; in experiment [2] (setting [5]), 0.105 µM.

As for `CNC(=O)c1ccnc(-c2c[nH]c3ccc(-c4nnc(NC(C)C)o4)cc23)n1` [Example 282, N-methyl-2-(5-(5-((1-methylethyl)amino)-1,3,4-oxadiazol-2-yl)-1H-indol-3-yl)-4-pyrimidinecarboxamide 2,2,2-trifluoroacetate], the figures for the IC50 in experiment [1] (setting [3]) and in experiment [2] (setting [4]) were 0.652 µM and 0.509 µM, respectively.

In the case of `CC(C)c1ccnc(-c2c[nH]c3ccc(-c4nnc(NCC#N)o4)cc23)n1` [Example 45, 2-((5-(3-(4-isopropylpyrimidin-2-yl)-1H-indol-5-yl)-1,3,4-oxadiazol-2-yl)amino)acetonitrile], the IC50 in experiment [1] (Pim-2 enzyme assay) worked out at 0.00283 µM; in experiment [2] (setting [5]), 0.00383 µM.

As to `CC(C)(C)Nc1nnc(-c2ccc3[nH]cc(-c4nccc(C5CC5)n4)c3c2)o1` [Example 54, N-tert-butyl-5-(3-(4-cyclopropylpyrimidin-2-yl)-1H-indol-5-yl)-1,3,4-oxadiazol-2-amine 2,2,2-trifluoroacetate], the IC50 in experiment [1] came to 0.00239 µM; in experiment [2] (setting [5]), 0.00158 µM.

In the case of `CC(C)Cn1cc(-c2c[nH]c3ccc(-c4nnc(N)o4)nc23)cn1` [Example 127, 5-(3-(1-(2-methylpropyl)-1H-pyrazol-4-yl)-1H-pyrrolo[3,2-b]pyridin-5-yl)-1,3,4-oxadiazol-2-amine], the IC50 in experiment [2] (setting [5]) is 0.389 µM.

On to `CC(C)Nc1nnc(-c2ccc3[nH]cc(-c4nc(C(=O)O)cc(C5CC5)n4)c3c2)o1` [Example 47, 6-cyclopropyl-2-(5-(5-(isopropylamino)-1,3,4-oxadiazol-2-yl)-1H-indol-3-yl)pyrimidine-4-carboxylic acid], for which the IC50 in experiment [1] (Pim-2 enzyme assay) was determined as 0.00116 µM; in experiment [2] (setting [5]), 0.0201 µM.

Consider `CC(C)Oc1cncc(-c2c[nH]c3ccc(-c4noc(N)n4)cc23)n1` [Example 71, 3-(3-(6-isopropoxypyrazin-2-yl)-1H-indol-5-yl)-1,2,4-oxadiazol-5-amine], for which the IC50 was 0.538 µM in experiment [1] (Pim-2 enzyme assay) and 0.0695 µM in experiment [2] (setting [5]).

For `CC(C)Nc1nc(-c2ccc3[nH]cc(-c4cncc(OC(C)C)n4)c3c2)no1` [Example 73, 3-(3-(6-isopropoxypyrazin-2-yl)-1H-indol-5-yl)-N-isopropyl-1,2,4-oxadiazol-5-amine], the results for the IC50 in experiment [1] and in experiment [2] (setting [5]) were 0.504 µM and 0.0459 µM, respectively.

Take `CC(C)Oc1cccc(-c2c[nH]c3ccc(-c4nc(N)no4)cc23)n1` [Example 68, 5-(3-(6-isopropoxypyridin-2-yl)-1H-indol-5-yl)-1,2,4-oxadiazol-3-amine]: the IC50 in experiment [1] is 0.0797 µM; in experiment [2] (setting [5]), 0.0427 µM.

As for `CC(C)Nc1nnc(-c2ccc3[nH]cc(-c4ncc(C(=O)NC5CC5)s4)c3c2)o1` [Example 275, N-cyclopropyl-2-(5-(5-((1-methylethyl)amino)-1,3,4-oxadiazol-2-yl)-1H-indol-3-yl)-1,3-thiazole-5-carboxamide], the IC50 is 0.705 µM in experiment [1] (setting [3]) and 0.259 µM in experiment [2] (setting [4]).

On to `CC(=O)Nc1nc(-c2ccc3[nH]cc(-c4cncc(OC(C)C)n4)c3c2)no1` [Example 74, N-(3-(3-(6-isopropoxypyrazin-2-yl)-1H-indol-5-yl)-1,2,4-oxadiazol-5-yl)acetamide], for which the IC50 was more than 1 µM in experiment [1] (Pim-2 enzyme assay) and 0.186 µM in experiment [2] (setting [5]).

In the case of `CNc1nnc(-c2ccc3[nH]cc(-c4nccc(-c5ccccc5)n4)c3c2)s1` [Example 131, N-methyl-5-(3-(4-phenyl-2-pyrimidinyl)-1H-indol-5-yl)-1,3,4-thiadiazol-2-amine], the IC50 is 0.0358 µM in experiment [1] (Pim-2 enzyme assay) and 0.0882 µM in experiment [2] (setting [5]).

With `CC(C)Nc1nnc(-c2ccc3[nH]cc(-c4cccc(C(=O)NC5CC5)n4)c3c2)o1` [Example 294, N-cyclopropyl-6-(5-(5-((1-methylethyl)amino)-1,3,4-oxadiazol-2-yl)-1H-indol-3-yl)-2-pyridinecarboxamide], the IC50 in experiment [2] (setting [4]) is 0.664 µM.

In the case of `Cc1cncc(-c2c[nH]c3ccc(-c4nnc(-c5ccccc5)s4)cc23)n1` [Example 274, 3-(6-methyl-2-pyrazinyl)-5-(5-phenyl-1,3,4-thiadiazol-2-yl)-1H-indole], the IC50 in experiment [1] (Pim-2 enzyme assay) and in experiment [2] was more than 1 µM throughout.

`CCOc1nc(-c2c[nH]c3ccc(-c4nnc(NC(C)C)o4)cc23)ncc1F` [Example 259, 5-(3-(4-ethoxy-5-fluoro-2-pyrimidinyl)-1H-indol-5-yl)-N-(1-methylethyl)-1,3,4-oxadiazol-2-amine]: the IC50 in experiment [1] (Pim-2 enzyme assay) worked out at 0.0369 µM; in experiment [2] (setting [5]), 0.0304 µM.

Regarding `CC(C)Nc1nnc(-c2ccc3[nH]cc(-c4ccc(C(N)=O)cc4F)c3c2)o1` [Example 290, 3-fluoro-4-(5-(5-(isopropylamino)-1,3,4-oxadiazol-2-yl)-1H-indol-3-yl)benzamide], the IC50 was determined as 0.238 µM in experiment [1] (setting [3]) and 0.0696 µM in experiment [2].

In the case of `CC(C)(C)Nc1nnc(-c2ccc3[nH]cc(-c4ncc(F)c(C5CC5)n4)c3c2)o1` [Example 56, N-tert-butyl-5-(3-(4-cyclopropyl-5-fluoropyrimidin-2-yl)-1H-indol-5-yl)-1,3,4-oxadiazol-2-amine], the IC50 in experiment [2] (setting [5]) was found to be 0.00253 µM.

Turning to `CNC(=O)c1ccc(-c2c[nH]c3ccc(-c4nnc(NC(C)C)o4)cc23)nc1` [Example 295, N-methyl-6-(5-(5-((1-methylethyl)amino)-1,3,4-oxadiazol-2-yl)-1H-indol-3-yl)-3-pyridinecarboxamide], the IC50 in experiment [2] (setting [4]) was 0.578 µM.

Take `CC(C)Nc1nnc(-c2ccc3[nH]cc(-c4nc(C(N)=O)cc(C5CC5)n4)c3c2)o1` [Example 48, 6-cyclopropyl-2-(5-(5-(isopropylamino)-1,3,4-oxadiazol-2-yl)-1H-indol-3-yl)pyrimidine-4-carboxamide]: in experiment [2] (setting [5]), the IC50 amounted to 0.00253 µM.

With `CNc1nc(-c2ccc3[nH]cc(-c4cncc(OC(C)C)n4)c3c2)no1` [Example 72, 3-(3-(6-isopropoxypyrazin-2-yl)-1H-indol-5-yl)-N-methyl-1,2,4-oxadiazol-5-amine], the IC50 in experiment [2] (setting [5]) is 0.0695 µM.

Take `CC(C)Nc1nnc(-c2ccc3[nH]cc(-c4ccc(C(N)=O)cn4)c3c2)o1` [Example 303, 6-(5-(5-((1-methylethyl)amino)-1,3,4-oxadiazol-2-yl)-1H-indol-3-yl)-3-pyridinecarboxamide]: in experiment [2] (setting [4]), the IC50 was determined as 0.268 µM.

Regarding `CC(C)Oc1cccc(-c2c[nH]c3ccc(-c4nsc(N)n4)cc23)n1` [Example 65, 3-(3-(6-isopropoxypyridin-2-yl)-1H-indol-5-yl)-1,2,4-thiadiazol-5-amine], the IC50 in experiment [2] (setting [5]) stood at 0.335 µM.

Source of the values: patent US9321756B2, “Azole compounds as PIM inhibitors” (priority 2011, dated 2016).
